# Results published in ChEMBL document CHEMBL3576772, “Fibroblast Growth Factor Receptor 3 (FGF-R3): A Promising Therapeutic Target for the Treatment of Bladder Cancer” (2015).
# Legend:
# [1] = system: Fibroblast growth factor receptor 3 (Homo sapiens), P22607 [S249C]; assay: Antagonist activity against FGFR3 Ser249Cys mutant in human TCC97-7 cells cultured in serum-supplemented medium assessed as reduction in ATP content at 10 um after 3 days by cell titer-Glo luminescent cell viability assay; type: cell-based
# [2] = Inhibition of serum-induced proliferation of human TCC97-7 cells carrying FGFR3 Ser249Cys mutation at 1 uM after 3 days; type: functional; settings: TCC97-7, 72 h
# [3] = Inhibition of serum-induced proliferation of human TCC97-7 cells carrying FGFR3 Ser249Cys mutation at 10 uM after 3 days; type: functional; settings: TCC97-7, 72 h
# [4] = system: Fibroblast growth factor receptor 3 (Homo sapiens), P22607 [S249C]; assay: Antagonist activity against FGFR3 Ser249Cys mutant in human TCC97-7 cells cultured in serum-supplemented medium assessed as reduction in ATP content at 1 um after 3 days by cell titer-Glo luminescent cell viability assay; type: cell-based
# Fibroblast growth factor receptor 3 (Homo sapiens), P22607 [S249C], sequence (P22607 whole entry S249C): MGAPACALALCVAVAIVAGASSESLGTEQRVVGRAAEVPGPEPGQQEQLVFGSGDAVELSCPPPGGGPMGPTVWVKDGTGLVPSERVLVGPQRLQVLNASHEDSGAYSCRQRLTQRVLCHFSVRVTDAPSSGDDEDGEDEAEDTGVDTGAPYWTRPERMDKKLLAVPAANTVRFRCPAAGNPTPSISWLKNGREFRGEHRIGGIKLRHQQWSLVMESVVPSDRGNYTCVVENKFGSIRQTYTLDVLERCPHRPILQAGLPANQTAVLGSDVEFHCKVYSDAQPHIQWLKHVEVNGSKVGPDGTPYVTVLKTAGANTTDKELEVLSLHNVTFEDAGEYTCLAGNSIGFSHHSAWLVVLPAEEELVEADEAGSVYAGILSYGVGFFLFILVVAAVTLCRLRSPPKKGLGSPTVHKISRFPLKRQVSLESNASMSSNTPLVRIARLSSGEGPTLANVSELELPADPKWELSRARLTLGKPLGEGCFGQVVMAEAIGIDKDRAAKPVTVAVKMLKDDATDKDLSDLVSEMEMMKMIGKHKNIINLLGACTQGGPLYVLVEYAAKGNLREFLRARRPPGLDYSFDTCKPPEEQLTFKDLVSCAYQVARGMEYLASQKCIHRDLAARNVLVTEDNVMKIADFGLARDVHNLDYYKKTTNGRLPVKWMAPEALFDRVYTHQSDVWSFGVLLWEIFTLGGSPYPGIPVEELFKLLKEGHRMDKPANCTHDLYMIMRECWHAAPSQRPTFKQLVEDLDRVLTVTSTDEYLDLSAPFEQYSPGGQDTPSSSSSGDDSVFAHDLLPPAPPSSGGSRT
SMILES,inhibition [1] [%],inhibition at 1 µM [2] [%],inhibition at 10 µM [3] [%],inhibition [4] [%]
O=c1[nH]c2ccc(-c3cc(C(F)(F)F)c4c(-c5ccccc5)n[nH]c4n3)cc2[nH]1,19,-3,29,–
O=C(c1cccc(-c2cc(C(F)F)c3c(-c4ccccc4)n[nH]c3n2)c1)N1CCCC1,90.5,16.2,83.9,26.9
Cn1nc(-c2ccccc2)c2c(C(F)(F)F)cc(-c3ccc(C(=O)O)cc3)nc21,40,8,33,17
Cn1nc(-c2ccccc2)c2c(C(F)(F)F)cc(-c3cccc(C(N)=O)c3)nc21,41.1,8,91.6,10.9
